We go through one molecule from patent US20020115724A1, “Methods and agents for inhibiting protein aging” (priority 1985, published 2002).

For data set [1], the system named is normal and diabetic rats. As to the kind of experiment: Aorta collagen solubility (acetic acid, CNBr, pepsin). Format: in vivo, rat. Particulars: 25 mg/kg daily i.p., 16 weeks. How it is done:
(§1) The experiment consisted of giving both normal and diabetic rats daily intraperitoneal doses of the agent aminoguanidine hydrochloride at a dose of 25 mg per kilogram of body weight, for a period of 16 weeks. […] Diabetes was induced prior to drug therapy with a single dose of streptozotocin. Control animals, both diabetic and normal, received no drug.
(§2) Aorta samples from the same groups of animals described in Example IV above were subjected to analysis for Advanced Glycosylation Endproducts (A.G.E.) content and solubility.
(§3) Aortas were finely minced with dissecting scissors, delipidated with 5 mL of chloroform: methanol (2:1), washed 5 times with buffer, and divided into aliquots for the following assessments of cross-linking:
(B) Solubility in 0.5M acetic acid was determined after 2 hours of extraction at 25° C. and 24 hours at 4° C.
(C) Solubility after cyanogen bromide cleavage at 30° C. for 18 hours was determined.
(D) Solubility after degradation by pepsin (1.0 mg/mL) in 0.1 M acetate buffer, pH 4.1, at 37° C. for 48 hours.
(§4) After treatment for the prescribed period, soluble material was separated from insoluble material by centrifugation (50,000× g, 1 hour), and all fractions were lyophilized and hydrolyzed in 6M HCl for determination of total hydroxyproline.

Data set [2] has as its system normal and diabetic rats. Kind of data set: Cross-linking of lipoprotein to aorta collagen, ELISA for apolipoprotein-B. It counts as in vivo, rat. The note with it: 25 mg/kg daily i.p., 16 weeks. On the procedure: as §1
Aorta samples from the same group of animals described in Example IV above, were subjected to analysis for cross-linking of lipoprotein to collagen, using an enzyme immunoassay. A standard ELISA procedure was employed, using antiserum to rat apoliproprotein-B raised in rabbits, peroxidase-labeled anti-rabbit antibody, and standard chromogenic reagents to detect quantity of antibody bound.
For orientation: In an ELISA, binding on a coated surface is turned into a signal by an enzyme label.

Data set [3] concerns diabetic New Zealand white rabbits. Kind of data set: Red blood cell deformability in long-term diabetic rabbits. Format: in vivo, rabbit. Particulars: for Red Blood Cell Deformability Index: diabetic rabbits, 100 mg/kg/day oral gavage. From the text:
New Zealand white rabbits, with induced, long-term diabetes (12.7±3.2 months) are used to study the effects of a test compound on red blood cell (RBC) deformability. If glucose-mediated crosslinking of red blood cell components results in less deformable, more rigid membrane, then therapy should prevent this change in new red cells. Red blood cells already in existence at the initiation of therapy would be unaffected; because RBCs are replaced frequently newly formed red blood cells would be exposed to the therapy. […] The test compound is administered at a rate of 100 mg/kg/day by oral gavage.
The deformability index (DI) (filtration rate of buffer/filtrate rate of suspended RBCs; hematocrit=4.0%) is used as a measure of RBC deformability. Buffer and suspended RBCs are filtered through a 3 μ micropore membrane (Nucleopore Corp., Pleasanton, Calif.) with a pressure of […] at 37° C. A reference range for RBC deformability (2.67 to 4.84, mean 4.02±0.69) and % hemoglobin glycosylation (1.7 to 3.96, mean 2.60±0.70) is obtained from a group of normal New Zealand white rabbits (n=14), matched for age, sex and weight.
The results are given in Table III, below for diabetic New Zealand white rabbits dosed with 100 mg/kg/day aminoguanidine.

A short description of data set [4]: Irritation on intraperitoneal injection, salt compared with free base. It counts as in vivo.
Another data set deals with diabetic rats. The note with it: cited from earlier work.
In data set [5] the test system is normal and diabetic rats. Kind of data set: Aorta advanced glycosylation endproduct content (specific fluorescence of collagen). Particulars: for Advanced glycosylation products: aorta, 25 mg/kg daily i.p., 16 weeks. It counts as in vivo, rat. How it is done: as §1, §2, §3
(A) Specific fluorescence of collagen after complete solubilization by proteinase k and pepsin.
as §4

In a further data set the test system is bovine serum albumin. As to the kind of experiment: Formation of fluorescent advanced glycosylation end products in albumin incubated with glucose. Format: biochemical. The note with it: 200 mM agent, 6 mg/mL BSA, 200 mM glucose, 37° C., two-week incubation, vs control. How it is done:
To measure the ability of certain of the agents of the present invention to inhibit the production of advanced glycosylated end products in vitro, albumin and glucose were incubated together for two weeks in the presence of several test agents. Samples were taken at regular intervals for analysis. Advanced glycosylation end products were measured as appearance of fluorescent compounds, and early glycosylation products were measured by incorporation of radiolabeled glucose into albumin. Reaction conditions were as follows. […]
After the incubation periods, samples were treated as follows. After dialysis to remove all unbound glucose, the amount of protein present was measured with a standard dye-binding assay. The amount of glucose which became bound to the albumin, a measure of early glycosylation products, was determined by precipitating albumin with trichloroacetic acid and measuring the radioactivity of the bound glucose using scintillation counting.
The results of this experiment are expressed graphically in FIG. 1. For each sample, incorporation of radiolabeled glucose is indicated by the solid portion of the bar, and fluorescence is indicated in the open portion of the bar. All values are expressed as per milligram of albumin. […]

Where a name gives a salt, the structure may show the parent alone.

Take `N=C(N)NN` [aminoguanidine hydrochloride]: the “Percent collagen solubilized by 0.5 M acetic acid” value turned out to be 12.6 ± 0.3% in the data set on normal and diabetic rats [1] (diabetic rats); 18.7 ± 0.3% in the data set on normal and diabetic rats [1] (normal rats). In addition, the “Percent collagen solubilized by CNBr” value is reported as 10.6 ± 0.1% with normal and diabetic rats [1] (diabetic rats); 13.6 ± 0.3% with normal and diabetic rats [1] (normal rats). In addition, the “Percent collagen solubilized by Pepsin” value with normal and diabetic rats [1] (diabetic rats) came to 46.1 ± 0.4%; in the data set with normal and diabetic rats [1] (normal rats), 52.5 ± 0.2%. Moreover, the “LIPOPROTEIN BOUND PER MG COLLAGEN” value in the data set with normal and diabetic rats [2] (diabetic rats) was determined as 0.64; in the data set on normal and diabetic rats [2] (normal rats) it was 0.53. The “Red Blood Cell Deformability Index” value in data set [3] (0 weeks of dosing (baseline)) was determined as 18.32 ± 6.03; in data set [3] (4 weeks of dosing) it was 7.17 ± 3.12; in data set [3] (8 weeks of dosing), 6.83 ± 2.97; in data set [3] (12 weeks of dosing) it was 4.64 ± 1.58; in data set [3] (16 weeks of dosing), 4.44 ± 1.33; in data set [3] (20 weeks of dosing), 4.14 ± 1.06. The “effect on diabetes-induced increased deformability index” value in data set [3] (long-term diabetic rabbits, delayed treatment) was “to normal after 12 weeks”. For the same molecule, in data set [3] (separate experiment, daily administration from the time of induction of diabetes), the “RBC deformability index” value is recorded as “never became abnormal”. Further, in data set [4], the “irritation compared with the parent free base” value is reported as “less irritating”. In addition, the “kidney glomerular basement membrane protein crosslinking” value in the data set with diabetic rats is listed as “diminishes kidney glomerular basement membrane protein crosslinking in diabetic rats”. Further, the Advanced glycosylation products in the data set with normal and diabetic rats [5] (diabetic rats) is given as 4.5 ± 0.1 Specific fluorescence per mg hydroxyproline; in the data set with normal and diabetic rats [5] (normal rats) it was 2.8 ± 0.1 Specific fluorescence per mg hydroxyproline. For the same molecule, the “level of fluorescent advanced glycosylation products in aortic tissue relative to untreated normal rats” value in the data set with normal and diabetic rats [5] (treated diabetic rats vs untreated normal rats) came to 1.3 times. Further, the “formation of fluorescent compounds (advanced glycosylation end products)” value in the data set with bovine serum albumin is “dramatically reduced by as much as eightfold”.
